Measurements reported in US8507472B2 (priority 2010, dated 2013).
Read-outs that look alike come from different tables or passages of the source.

Columns and labels:
Botrytis cinerea = assay: Botrytis test (bean)/protective; assay type: in vivo; conditions: 100 ppm active compound, protective, evaluation 2 days after inoculation
Summary of the method: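 Young bean plants sprayed at the stated rate with compound in acetone/dimethylacetamide plus alkylaryl polyglycol ether emulsifier, diluted in water. Once dry, each leaf got 2 agar pieces colonized by Botrytis cinerea; kept dark at about 20° C., 100% humidity. Infected area scored after 2 days; 0% = control, 100% = no infection.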

[1] = test system: Fusarium nivale (var. majus); assay: Fusarium nivale (var. majus) test (wheat)/protective; assay type: in vivo; conditions: 1000 ppm active compound, protective, evaluation 5 days after inoculation
Summary of the method: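 Protective spray of young wheat plants at the stated rate (compound in dimethylacetamide with emulsifier, diluted in water), then inoculation with Fusarium nivale spores once dry. Plants kept at 10 °C and 100% humidity; scored 5 days after inoculation as % efficacy, where 0% equals untreated control and 100% means no infection.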

Phakopsora pachyrhizi = assay: Phakopsora test (Sojabohnen)/protective; assay type: in vivo; conditions: 250 ppm active compound, protective, evaluation 1 day after inoculation
Experimental: (§1) Solvent: 28.5 parts by weight of acetone
(§2) Emulsifier: 1.5 parts by weight of alkylaryl polyglycol ether
(§3) To produce a suitable preparation of active compound, 1 part by weight of active compound is mixed with the stated amount of solvent, and the concentrate is diluted with water and the stated amount of emulsifier to the desired concentration.
[…] 1 day after the treatment, the plants are inoculated with an aqueous spore suspension of Phakopsora pachyrhizi. The plants are then placed in a greenhouse at 80% relative atmospheric humidity and 20° C.
Evaluation is carried out 1 day after the inoculation. 0% means an efficacy which corresponds to that of the control, whereas an efficacy of 100% means that no infection is observed.

Pyrenophora teres = Pyrenophora teres test (barley)/protective; assay type: in vivo
Summary of the method: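 Protective test: young barley plants sprayed at the stated rate with compound in DMF/alkylaryl polyglycol ether diluted with water, inoculated with P. teres spores 1 day later, kept 48 h at 100% rel. humidity and 22° C., then greenhouse at 80% and 20° C. Efficacy scored 7-9 days post-inoculation (0% = control, 100% = no infection).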

Fusarium graminearum [2] = assay type: in vivo
Sphaerotheca fuliginea = assay: Sphaerotheca test (cucumber)/protective; assay type: in vivo
Summary of the method: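 Protective test: young cucumber plants sprayed with compound (DMF/alkylaryl polyglycol ether concentrate diluted in water) at the stated rate, inoculated with S. fuliginea spores 1 day later, then kept in greenhouse at 23 °C, 70% RH. Efficacy scored 7 days post-inoculation; 0% equals untreated control, 100% means no infection.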

Alternaria solani = assay: Alternaria test (tomato)/protective; assay type: in vivo
Summary of the method: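 Young tomato plants were sprayed with compound (DMF/emulsifier formulation diluted in water) and inoculated with A. solani spores 1 day later. Plants were kept 24 h at 100% RH and 22 °C, then at 96% RH and 20 °C. Efficacy was scored 7 days post-inoculation, where 0% equals untreated control and 100% means no infection.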

Leptosphaeria nodorum = Leptosphaeria nodorum test (wheat)/protective; assay type: in vivo
Summary of the method: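 Young wheat plants were sprayed protectively, then inoculated 1 day later with L. nodorum spores and held 48 h at 100% humidity and 22° C. They were then kept in a greenhouse at 90% humidity and 22° C. Efficacy was scored 7-9 days post-inoculation, where 0% equals control and 100% means no infection.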

Phytophthora infestans = assay type: in vivo
Fusarium graminearum [3] = assay: microbe, parasite or virus in culture; assay type: cell-based
Venturia inaequalis = assay: Venturia test (apple)/protective; assay type: in vivo; conditions: 100 ppm active compound, protective, evaluation 10 days after inoculation
Summary of the method: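 Young apple plants sprayed protectively with compound (in acetone/dimethylacetamide with alkylaryl polyglycol ether, diluted in water) at the stated rate, then inoculated with V. inaequalis conidia once dry. Held 1 day at ~20° C, 100% humidity, then greenhouse ~21° C, ~90% humidity; efficacy scored 10 days post-inoculation (0% = control, 100% = no infection).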

Puccinia triticina = Puccinia triticina test (wheat)/protective; assay type: in vivo
Summary of the method: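 Protective test: young wheat plants sprayed with compound (dimethylacetamide/alkylaryl polyglycol ether formulation, water-diluted) at stated rate, then inoculated with Puccinia triticina spores once dry; 48 h at 20 °C, 100% RH, then greenhouse ~20 °C, ~80% RH. Efficacy scored 8 days post-inoculation, 0% = control, 100% = no infection.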

DON/AcDON production = assay: microbe, parasite or virus in culture; assay type: cell-based, Fusarium graminearum; conditions: 7 days at 28° C.
[4] = log P determination by HPLC retention times (alkan-2-one calibration)
Uromyces appendiculatus = assay: Uromyces test (bean)/protective; assay type: in vivo
Summary of the method: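 Young bean plants sprayed with compound formulated in acetone/dimethylacetamide with emulsifier, inoculated with Uromyces appendiculatus spores after drying, held 1 day at ~20 °C and 100% humidity, then greenhouse ~21 °C, ~90% humidity. Efficacy scored 10 days post-inoculation, 0% = untreated control, 100% = no infection.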

Rhizoctonia solani = assay: Rhizoctonia test (rice)/protective; assay type: in vivo; conditions: 250 ppm active compound, protective, evaluation 4 days after inoculation
Experimental: as §1, §2, §3
To test for protective activity, young rice plants are sprayed with the active compound preparation at the stated application rate. 1 day after the treatment, the plants are inoculated with hyphae of Rhizoctonia solani. The plants are then placed in a greenhouse at 100% relative atmospheric humidity and 25° C.
Evaluation is carried out 4 days after the inoculation. 0% means an efficacy which corresponds to that of the control, whereas an efficacy of 100% means that no infection is observed.

Gibberella zeae = conditions: in vivo
Pyricularia oryzae = conditions: in vivo
Septoria tritici = Septoria tritici test (wheat)/protective; assay type: in vivo; conditions: in vivo
Summary of the method: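 Young wheat plants were sprayed protectively with compound (dimethylacetamide/emulsifier formulation diluted in water), then inoculated with Septoria tritici spores after drying. Incubation was 48 hours at 20° C and 100% humidity, then 60 hours at 15° C and 100% humidity, then greenhouse at about 15° C, 80% humidity; efficacy was scored 21 days post-inoculation (0% = control, 100% = no infection).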

Cochliobolus miyabeanus = assay: Cochliobolus test (rice)/protective; assay type: in vivo; conditions: 250 ppm active compound, protective, evaluation 4 days after inoculation
[5] = 500 ppm active compound, tomato, protective, evaluation 7 days after inoculation

Row | Structure (SMILES) | efficacy in % (Botrytis cinerea) | efficacy in % [1] | efficacy in % (Venturia inaequalis) | efficacy in % (Rhizoctonia solani) | efficacy in % (Pyrenophora teres; in vivo) | efficacy in % (Gibberella zeae) | efficacy in % (Fusarium graminearum [2]; in vivo) | efficacy in % (Sphaerotheca fuliginea; in vivo) | efficacy in % (Pyricularia oryzae) | efficacy in % (Septoria tritici) | efficacy in % (Alternaria solani; in vivo) | efficacy in % (Cochliobolus miyabeanus) | efficacy in % (Leptosphaeria nodorum; in vivo) | efficacy in % (Phytophthora infestans; in vivo) | % inhibition of the fungal growth of Fusarium graminearum at 50 μM (Fusarium graminearum [3]) | efficacy in % (Puccinia triticina; in vivo) | % inhibition of DON/AcDON at 50 μM (DON/AcDON production) | efficacy in % (Uromyces appendiculatus; in vivo) | also measured
1 | CCC(=O)Nc1cc(-c2c(-c3ccc(F)cc3)nn3c2CCCC3)ccn1 [Example 5, N-{4-[2-(4-Fluorophenyl)-4,5,6,7-tetrahydropyrazolo[1,5-a]pyridin-3-yl]pyridin-2-yl}propanamide] | 100% | 100% | 98% |  |  |  |  |  |  |  |  |  |  |  |  |  |  |  | efficacy in % (Phakopsora pachyrhizi): 80%; efficacy in % (Pyrenophora teres; 500 ppm active compound, barley, protective, evaluation 7-9 days after inoculation): 100%; efficacy in % (Fusarium graminearum [2]; 1000 ppm active compound, barley, protective, evaluation 5 days after inoculation): 100%; efficacy in % (Sphaerotheca fuliginea; 500 ppm active compound, cucumber, protective, evaluation 7 days after inoculation): 95%; efficacy in % (Alternaria solani; [5]): 100%; efficacy in % (Leptosphaeria nodorum; 500 ppm active compound, wheat, protective, evaluation 7-9 days after inoculation): 94%; efficacy in % (Phytophthora infestans; [5]): 95%; inhibition at 50 µM (Fusarium graminearum [3]; Fusarium graminearum, 72 h, read-out: % inhibition of the fungal growth of Fusarium graminearum at 50 μM): 100%; efficacy in % (Puccinia triticina; 1000 ppm active compound, wheat, protective, evaluation 8 days after inoculation): 100%; inhibition at 50 µM (DON/AcDON production; Fusarium graminearum, 168 h): 99%; chromatographic logP ([4]; log P(HCOOH), HCOOH, preparation examples in the text): 1.97; chromatographic logP ([4]; log P, values marked [a] in Table 1): 1.97; chromatographic logP ([4]; log P, values marked [b] in Table 1): 2.58; efficacy in % (Uromyces appendiculatus; 100 ppm active compound, bean, protective, evaluation 10 days after inoculation): 98%
2 | CC(C)C(=O)Nc1cc(-c2c(-c3ccccc3)nn3c2CCCC3)ccn1 [Example 29] | 100% | 86% | 95% | 100% | 100% | 80% | 94% | 83% | 95% | 71% | 100% | 95% | 90% | 90% | 100% | 94% | 99% | 94% | 
3 | CC(C)CC(=O)Nc1cc(-c2c(-c3ccccc3)nn3c2CCCC3)ccn1 [Example 31] | 90% | 100% | 100% | 100% | 100% | 80% | 100% | 95% | 98% | 100% | 94% | 95% | 90% | 80% | 97% | 94% | 99% | 94% | 
4 | O=C(Cc1ccccc1)Nc1cc(-c2c(-c3ccc(F)cc3)nn3c2CCCC3)ccn1 [Example 34] | 99% | 100% | 95% | 85% | 94% | 80% | 100% | 100% | 95% | 93% | 100% | 90% | 95% | 95% | 98% | 94% | 99% | 95% | 
